Data on one molecule can be found in PubChem BioAssay AID1259407 (Chemical Carcinogenesis Research Information System (CCRIS), 2018).

Active and inactive are the calls of the source. The rule behind the calls is not given here.

In this data set the test system is CCRIS mutagenicity, Ames/micronucleus/aberration tests. Put plainly: CCRIS mutagenicity studies.

For `Cc1cc(-c2ccc(N=C=O)c(C)c2)ccc1N=C=O`, the mutagenic call by setting is: (End Point: IN VITRO CHROMOSOMAL ABERRATIONS, Test System: CHL CELLS, Metabolic Activation: RAT, LIVER, S-9, SODIUM PHENOBARBITAL AND 5,6-BENZOFLAVONE) “active; positive (structural changes)”; (Test System: AMES SALMONELLA TYPHIMURIUM, Strain/Indicator: TA98, Metabolic Activation: NONE, Method: PREINCUBATION) “inactive; negative”; (Test System: AMES SALMONELLA TYPHIMURIUM, Strain/Indicator: TA98, Metabolic Activation: RAT LIVER S-9, PHENOBARBITAL AND BETA-NAPHTHOFLAVONE, Method: PREINCUBATION) “active; positive”; (Test System: AMES SALMONELLA TYPHIMURIUM, Strain/Indicator: TA100, Metabolic Activation: NONE, Method: PREINCUBATION) “inactive; negative”; (Test System: AMES SALMONELLA TYPHIMURIUM, Strain/Indicator: TA100, Metabolic Activation: RAT LIVER S-9, PHENOBARBITAL AND BETA-NAPHTHOFLAVONE, Method: PREINCUBATION) “inactive; negative”; (Test System: AMES SALMONELLA TYPHIMURIUM, Strain/Indicator: TA1535, Metabolic Activation: NONE, Method: PREINCUBATION) “inactive; negative”. Besides, the mutagenic call is, setting by setting: (Test System: AMES SALMONELLA TYPHIMURIUM, Strain/Indicator: TA1535, Metabolic Activation: RAT LIVER S-9, PHENOBARBITAL AND BETA-NAPHTHOFLAVONE, Method: PREINCUBATION) “inactive; negative”; (Test System: AMES SALMONELLA TYPHIMURIUM, Strain/Indicator: TA1537, Metabolic Activation: NONE, Method: PREINCUBATION) “inactive; negative”; (Test System: AMES SALMONELLA TYPHIMURIUM, Strain/Indicator: TA1537, Metabolic Activation: RAT LIVER S-9, PHENOBARBITAL AND BETA-NAPHTHOFLAVONE, Method: PREINCUBATION) “inactive; negative”; (Test System: AMES SALMONELLA TYPHIMURIUM, Strain/Indicator: TA1538, Metabolic Activation: NONE, Method: PREINCUBATION) “inactive; negative”; (Test System: AMES SALMONELLA TYPHIMURIUM, Strain/Indicator: TA1538, Metabolic Activation: RAT LIVER S-9, PHENOBARBITAL AND BETA-NAPHTHOFLAVONE, Method: PREINCUBATION) “active; positive”; (Test System: E.COLI, Strain/Indicator: WP2UVRA, Metabolic Activation: NONE, Method: PREINCUBATION) “inactive; negative”. Further, under “Test System: E.COLI, Strain/Indicator: WP2UVRA, Metabolic Activation: RAT LIVER S-9, PHENOBARBITAL AND BETA-NAPHTHOFLAVONE, Method: PREINCUBATION”, the mutagenic call is “inactive; negative”.
